Columns and labels:
NIH 3T3 cells = assay: NIH 3T3 peptide permeation by live-cell confocal microscopy; type: cell-based, mouse; settings: live NIH 3T3 cells; 5 µM TAMRA-labeled peptide, Opti-mem + 2% FBS, 3 hours, 37°C
[1] = system: dechorionated Drosophila melanogaster hosts; type: in vivo; settings: dechorionated-only hosts; 20 µM peptide overnight, room temperature

Substance	permeation by confocal fluorescence microscopy (NIH 3T3 cells)	partial loss of viability observed (in words) [1]
TAMRA-GEGEGEG	no permeation was detected	
TAMRA-MRKRHASRREK	spare punctuate fluorescence	
TAMRA-RRRRRRRRR	spare punctuate fluorescence	sole exception
cyclo[Glut-MRKRHASRRE-K*]-K(5-TAMRA) (sidechain bridge or staple)	substantially greater permeation	

From article doi:10.1101/2020.07.20.212142v1 (bioRxiv, 2020)
